{"source": "patent US20150050368A1", "about": "“METHOD FOR PRODUCING A PLANT EXTRACT FROM DESMODIUM AND ITS EXTRACT THEREOF” (priority 2012, published 2015)", "key": {"[1]": {"details": "in vivo; cited from earlier work"}, "[2]": {"tested_on": "insulin-resistant patients", "details": "20 mg/kg/day for 4 weeks; cited from earlier work"}, "L6 rat muscle cells": {"tested_on": "L6 rat muscle cells", "details": "cited from earlier work"}, "[3]": {"tested_on": "ethanol-induced liver injury", "assay": "protective effect against ethanol-induced liver injury in rats", "type": "in vivo, male Wistar rats", "text": "The purpose of the experiment is to evaluate the hepatoprotective effects of decoct of Desmodium adscendens against ethanol-induced liver injury, standardized to its primary ingredient: D-pinitol. Materials and Methods: 66 male Wistar rats of 200-225 g (Charles River, Brussels, Belgium) were randomly divided into 6 groups: the negative control group (CON: no hepatotoxic agent, no treatment: 8 rats), the hepatotoxic group (HEP: induction of hepatotoxicity, no treatment: 20 rats), the Desmodium I group (induction of hepatotoxicity, treatment with Desmodium adscendens decoct, equivalent to 2 mg/kg of D-pinitol: 10 rats), the group II Desmodium (induction of hepatotoxicity, treatment with Desmodium adscendens decoct, equivalent to 10 mg/kg of D-pinitol: 10 rats), the D-pinitol group (PIN: induction of hepatotoxicity, treatment with 10 mg/kg of D-pinitol: 10 rats), the positive control group (SIL: induction of hepatotoxicity, treatment with 20 mg/kg of silymarin: 8 rats). 2 days prior to ethanol administration, an appropriate amount of lyophilized decoct, pinitol silymarin or suspended in water and administered by gavage (or vehicle for the control group). Hepatotoxicity was induced by daily oral gavage with a 55% ethanol solution (except for the negative control group). […] Ethanol was administered for a period of 7 weeks. Was administered daily, depending on the group, treated with the specific decoct, pinitol or silymarin (oral gavage) to the end of the experiment. For ethanol administration (default values), and at weeks 3, 4, 5 and 6, blood samples (1.5 ml) were taken from the lateral tail vein (Multi Fat 600, Sarstedt). This experiment was approved by the Ethics Committee for Animal Experiments of the University of Antwerpen (17-01-2011, 2010-37).\nA schematic overview of the different treatment groups is given below next. Concentrations of enzyme aspartate transaminase (AST, GOT) and alanine transaminase (ALT, GPT) were in the serum samples from the test animals as determined by routine laboratory techniques (Senior, 2009). Elevated levels can be considered as an indication of liver cell destruction or a change in membrane permeability.\nStatistics to analyze the difference between CON and HEP for AST and ALT, and between HEP and DES 1, DES 2, PIN and SIL for AST and ALT, was a mixed model analyze performed. The log-rank test was performed for statistical analysis of survival data."}, "[4]": {"tested_on": "liver injury induced by galactosamine", "assay": "preventive effect of Desmodium adscendens decoction against galactosamine-induced liver injury in rats", "type": "in vivo, Sprague Dawley rats", "details": "48 h after D-galactosamine 650 mg/kg IP; oral gavage; Desmodium equivalent to 20 or 5 mg/kg D-pinitol, D-pinitol 20 mg/kg, silymarin 20 mg/kg", "text": "As far as the in vivo evaluation of the hepato-protective effect of Desmodium adscendens decoction is concerned, D-pinitol has a hepato-protective effect. One of the constituents of Desmodium adscendens is D-pinitol. […] In this in vivo experiment the preventive effect of a decoction of Desmodium adscendens against liver injury induced by galactosamine was investigated in rats. Silymarin was used as the reference agent. Silymarin is a mixture of various flavanolignans from the fruits of the milk thistle plant, Silybum marianum. The principal components are silybin, […]. In addition, small quantities of isosilybin are present in milk thistle. […] The liver injury and the possible hepato-protective effect were evaluated by determining the following parameters in serum: ALT (=GPT), AST (=GOT), ALP. […] After administration of the hepatotoxic agent D-galactosamine, both after 24 h and after 48 h, liver injury was observed through a marked increase in the three parameters determined (control vs. hepatotox)."}, "[5]": {"tested_on": "severely insulin-resistant mice", "details": "mouse, in vivo; cited from earlier work"}, "[6]": {"tested_on": "patients with type 2 diabetes", "details": "cited from earlier work"}, "[7]": {"tested_on": "streptozotocin-induced diabetic rats", "details": "rat, in vivo; cited from earlier work"}, "[8]": {"tested_on": "carrageenan-induced oedema of the paw; cotton pellet granuloma", "details": "cited from earlier work"}, "3T3-L1 adipocytes": {"tested_on": "3T3-L1 adipocytes", "details": "cited from earlier work"}, "[9]": {"tested_on": "liver injury with galactosamine", "details": "after induction of liver injury with galactosamine; cited from earlier work"}, "[10]": {"tested_on": "LPS-induced dendritic bone marrow cells", "details": "cited from earlier work"}, "foam cells": {"tested_on": "foam cells", "details": "cited from earlier work"}, "neutrophils": {"tested_on": "neutrophils", "details": "cited from earlier work"}, "[11]": {"tested_on": "older, non-diabetic patients", "details": "intake for 6 weeks; cited from earlier work"}, "[12]": {"tested_on": "streptozotocin-induced diabetic mice", "details": "mouse, in vivo; cited from earlier work"}, "OVA-induced asthma": {"tested_on": "OVA-induced asthma", "details": "mouse, in vivo; cited from earlier work"}, "[13]": {"details": "after 4 weeks of ethanol, daily oral gavage, DES1 eq. 2, DES2 eq. 10 mg/kg D-pinitol, PIN 10 mg/kg, SIL 20 mg/kg"}, "[14]": {"details": "after 5 weeks of ethanol, daily oral gavage, DES1 eq. 2, DES2 eq. 10 mg/kg D-pinitol, PIN 10 mg/kg, SIL 20 mg/kg"}, "[15]": {"details": "after 6 weeks of ethanol, daily oral gavage, DES1 eq. 2, DES2 eq. 10 mg/kg D-pinitol, PIN 10 mg/kg, SIL 20 mg/kg"}, "[16]": {"details": "13 weeks of treatment with 2×60 mg per day"}}}
{"compound": "CO[C@H]1[C@H](O)[C@@H](O)[C@@H](O)[C@H](O)[C@@H]1O", "note": "[D-pinitol, 3-O-methyl-chiro-inositol]", "values": [{"measurement": "metabolism in humans", "setting": "[1]", "result": "metabolised partly to D-chiro-inositol"}, {"measurement": "basal and insulin-mediated glucose or lipid metabolism", "setting": "[2]", "result": "no effect"}, {"measurement": "basal uptake of 2-deoxyglucose", "setting": "L6 rat muscle cells; L6 muscle cells", "result": "increases the basal uptake of 2-deoxyglucose"}, {"measurement": "translocation of GLUT4 to the cell membrane", "setting": "L6 rat muscle cells; L6 rat muscle cells", "result": "induces the translocation of GLUT4 to the cell membrane"}, {"measurement": "survival of test animals", "setting": "[3]; W0, DES1 eq. 2, DES2 eq. 10 mg/kg D-pinitol, PIN 10 mg/kg, SIL 20 mg/kg", "result": 100, "unit": "%"}, {"measurement": "survival of test animals", "setting": "[3]; W1 of ethanol, DES1 eq. 2, DES2 eq. 10 mg/kg D-pinitol, PIN 10 mg/kg, SIL 20 mg/kg", "result": 100, "unit": "%"}, {"measurement": "survival of test animals", "setting": "[3]; W2 of ethanol, DES1 eq. 2, DES2 eq. 10 mg/kg D-pinitol, PIN 10 mg/kg, SIL 20 mg/kg", "result": 70, "unit": "%"}, {"measurement": "survival of test animals", "setting": "[3]; W3 of ethanol, DES1 eq. 2, DES2 eq. 10 mg/kg D-pinitol, PIN 10 mg/kg, SIL 20 mg/kg", "result": 60, "unit": "%"}, {"measurement": "survival of test animals", "setting": "[3]; W4 of ethanol, DES1 eq. 2, DES2 eq. 10 mg/kg D-pinitol, PIN 10 mg/kg, SIL 20 mg/kg", "result": 60, "unit": "%"}, {"measurement": "survival of test animals", "setting": "[3]; W5 of ethanol, DES1 eq. 2, DES2 eq. 10 mg/kg D-pinitol, PIN 10 mg/kg, SIL 20 mg/kg", "result": 50, "unit": "%"}, {"measurement": "survival of test animals", "setting": "[3]; W6 of ethanol, DES1 eq. 2, DES2 eq. 10 mg/kg D-pinitol, PIN 10 mg/kg, SIL 20 mg/kg", "result": 40, "unit": "%"}, {"measurement": "survival of test animals", "setting": "[3]; W6 of ethanol, DES1 eq. 2, DES2 eq. 10 mg/kg D-pinitol, PIN 10 mg/kg, SIL 20 mg/kg, listed as PIN", "result": 40, "unit": "%"}, {"measurement": "Serum ALT ALT_4 Average", "setting": "[3]; [13]", "result": 75.9}, {"measurement": "Serum AST AST_4 Average", "setting": "[3]; [13]", "result": 89.3, "unit": "U/I"}, {"measurement": "Serum ALT ALT_5 Mean", "setting": "[3]; [14]", "result": 61.6}, {"measurement": "Serum AST AST_5 Average", "setting": "[3]; [14]", "result": 78.3, "unit": "U/I"}, {"measurement": "Serum ALT ALT_6 Mean", "setting": "[3]; [15]", "result": 65.6}, {"measurement": "Serum AST AST_6 Mean", "setting": "[3]; [15]", "result": 86.3, "unit": "U/I"}, {"measurement": "statistical difference in survival vs the hepatotoxic group", "setting": "[3]; log-rank test, 6 weeks, DES 1 eq. 2, DES 2 eq. 10 mg/kg pinitol, pinitol 10 mg/kg, silymarin 20 mg/kg", "result": "No statistically significant difference"}, {"measurement": "ALT (GPT) in serum compared with the hepatotoxic group", "setting": "[4]", "result": "decreased significantly"}, {"measurement": "AST (GOT) in serum compared with the hepatotoxic group", "setting": "[4]", "result": "decreased significantly"}, {"measurement": "efficacy", "setting": "[5]", "result": "not effective"}, {"measurement": "HDL cholesterol values", "setting": "[6]; [16]", "result": "increased"}, {"measurement": "total cholesterol, LDL/HDL ratio and systolic and diastolic blood pressures", "setting": "[6]; [16]", "result": "decreased"}, {"measurement": "fasting glucose values, HbA1c values and insulin", "setting": "[6]; human, in vivo", "result": "favourable effect"}, {"measurement": "fasting and postprandial glucose values and HbA1c values", "setting": "[6]; uncontrolled type 2 diabetes, 12 weeks, 20 mg/kg/day, in addition to the usual therapy", "result": "improves"}, {"measurement": "levels of adiponectin, leptin, C-reactive protein (CRP) and free fatty acids", "setting": "[6]; uncontrolled type 2 diabetes, 12 weeks, 20 mg/kg/day", "result": "does not significantly change"}, {"measurement": "AST, ALT and alkaline phosphatase values in the liver", "setting": "[7]", "result": "normalises"}, {"measurement": "blood glucose, haemoglobin and insulin", "setting": "[7]", "result": "lowers blood glucose haemoglobin and increases insulin"}, {"measurement": "effect on lipids", "setting": "[7]", "result": "lipid-lowering effect"}, {"measurement": "effect against acute inflammation", "setting": "[8]; carrageenan-induced oedema of the paw", "result": "anti-inflammatory properties"}, {"measurement": "effect against subacute inflammation", "setting": "[8]; cotton pellet granuloma", "result": "anti-inflammatory properties"}, {"measurement": "expression of adiponectin mRNA", "setting": "3T3-L1 adipocytes; 1 mM", "result": "increases expression of adiponectin mRNA"}, {"measurement": "mRNA expression of GLUT4, IRS, PPARγ and C/EBP", "setting": "3T3-L1 adipocytes; 0.5 and 1 mM", "result": "increases the mRNA expression"}, {"measurement": "AST and ALT liver values and TNF-α values", "setting": "[9]", "result": "normalises"}, {"measurement": "lipid peroxidation", "setting": "[9]", "result": "reduces lipid peroxidation"}, {"measurement": "production of IL-12 and pro-inflammatory cytokines", "setting": "[10]; LPS-induced", "result": "reduces the production"}, {"measurement": "expression of MHC-I, MHC-II, CD80 and CD86", "setting": "[10]; in vitro and in vivo", "result": "decreases the expression"}, {"measurement": "formation of foam cells", "setting": "foam cells", "result": "moderately decreases"}, {"measurement": "TNF-alpha expression", "setting": "neutrophils", "result": "inhibits TNF-alpha expression"}, {"measurement": "insulin-mediated glucose metabolism", "setting": "[11]", "result": "no effect"}, {"measurement": "hypoglycaemic effect", "setting": "[12]", "result": "acute and chronic hypoglycaemic effect"}, {"measurement": "hyperreactivity and inflammation observed in asthma", "setting": "OVA-induced asthma", "result": "reduces"}, {"measurement": "number of inflammatory cells in bronchoalveolar lavage fluid", "setting": "OVA-induced asthma", "result": "decreases"}]}
